According to patent US11173192B2 (priority 2016, dated 2021):

Tests used:
[1] = tested on: VSV-infected RAW264.7 cells; format: cell-based
VSV = format: cell-based, vesicular stomatitis virus (VSV)

## EPRS: glutamyl-prolyl-tRNA synthetase protein, 1512 aa, SEQ ID NO: 63; expressed from plasmid or purified
[1]
  IFN-β production following infection with VSV: more production of IFN-β and IL-6
  IL-6 production following infection with VSV: more production of IFN-β and IL-6
VSV
  viral replication following infection with VSV: significantly less viral replication
